{"source": "patent US11883402B2", "about": "“Crystalline forms of a quinazoline compound and its hydrochloride salts” (Hanmi Pharmaceutical Co., Ltd., priority 2018, dated 2024)", "type_in_all_cases": "physicochemical", "key": {"[1]": {"test": "Behaviour under long-term, accelerated and harsh storage conditions (moisture absorption, stability of form)"}, "[2]": {"test": "Dynamic vapor sorption (DVS) hygroscopicity", "conditions": "for Hygroscopic degree (DVS): 25° C.", "method": "Dynamic Vapor Sorption (DVS) analysis was conducted on the DVS advantage (Surface measurement system, United Kingdom) analyzer at 25° C. and relative humidity of 0-90%.\n10 mg of sample was placed in the wire mesh steam sorption balance pan and attached to the DVS-advantage dynamic vapor adsorption balance by the Surface Measurement Systems. […] After the completion of the sorption cycle, the sample was dried using the same procedure, during which the relative humidity was returned to a relative humidity […] all the time. The change in weight during the sorption/desorption cycle (repetition of 3 times) was recorded to determine the hygroscopicity of the sample."}, "[3]": {"test": "Comparative test of solubility of amorphous form and crystalline polymorphs of the hydrochloride salt (Test Example 1)", "conditions": "25° C., loading of 1.0 mg/mL, LOD 0.1 μg/mL, based on compound of formula (1), listed as HCl cryst. hydrate", "method": "To compare the solubility of amorphous hydrochloride salt form and crystalline hydrochloride salt polymorphs, each of the polymorphs and amorphous form of the hydrochloride salt of the compound of chemical formula (1) prepared in Examples 4 to 6 was used to prepare samples under the following conditions according to non-ionized water and acidity (pH). Thereafter, each solution was analyzed by high performance liquid chromatography (HPLC) according to the measurement conditions of the content of the compound of chemical formula (1) to measure the dissolved amount (LOD: 0.1 μg/mL) based on the compound of chemical formula (1).\nSpecifically, 5 mg of each polymorph was added to 5 ml of water and mixed using a Voltamixer at 20-25° C. Thereafter, the filtrate obtained by filtrating using GH Polypro membrane Acrodisc, PALL (pore size 0.2 μm) was diluted with a dilution solvent for high performance liquid chromatography (HPLC) at a ratio of 1/100, to obtain the samples."}, "[4]": {"test": "Comparative test of stability (HPLC purity on storage) of amorphous form and crystalline polymorphs of the hydrochloride salt (Test Example 2)", "conditions": "listed as HCl amorphous", "method": "High performance liquid chromatography (HPLC) was conducted on the Agilent 1100/1200 series HPLC Systems (Agilent, USA) analyzer for the purpose of purity and content analysis including stability test and the like. The analysis conditions of the HPLC are as follows.\nTo compare the stability of amorphous hydrochloride salt form and crystalline hydrochloride salt polymorphs, each of samples of the polymorphs and amorphous form of the hydrochloride salt of the compound of chemical formula (1) prepared in Examples 4 to 6 was left for 4 weeks under long term conditions (e.g., temperature of 25±2° C. and relative humidity of 60±5%) and accelerated conditions (e.g., temperature of 40° C. and relative humidity of 75%). Each sample was analyzed by high performance liquid chromatography (HPLC) according to the purity measurement conditions of the compound of chemical formula (1)."}}}
{"smiles": "C=CC(=O)N1CCC(Oc2cc3c(Nc4ccc(Cl)c(Cl)c4F)ncnc3cc2OC)CC1", "note": "[Example 5, 1-(4-(4-(3,4-dichloro-2-fluorophenylamino)-7-methoxyquinazolin-6-yloxy)piperidin-1-yl)prop-2-en-1-one]", "values": [{"measurement": "Moisture absorption on storage (in words)", "setting": "[1]; long-term (25° C., 60% RH) and accelerated (40° C., 75% RH) conditions", "value": "did not absorb moisture"}]}
{"smiles": "C=CC(=O)N1CCC(Oc2cc3c(Nc4ccc(Cl)c(Cl)c4F)ncnc3cc2OC)CC1", "note": "[Example 2, 1-(4-(4-(3,4-dichloro-2-fluorophenylamino)-7-methoxyquinazolin-6-yloxy)piperidin-1-yl)prop-2-en-1-one]", "values": [{"measurement": "Hygroscopic degree (DVS)", "setting": "[2]; relative humidity range of 10%-50%", "value": "0.3-0.5%"}, {"measurement": "Hygroscopic degree (DVS)", "setting": "[2]; relative humidity range of 50-90%", "value": "about 3%"}]}
{"smiles": "C=CC(=O)N1CCC(Oc2cc3c(Nc4ccc(Cl)c(Cl)c4F)ncnc3cc2OC)CC1", "note": "[Example 4, 1-(4-(4-(3,4-dichloro-2-fluorophenylamino)-7-methoxyquinazolin-6-yloxy)piperidin-1-yl)prop-2-en-1-one]", "values": [{"measurement": "Solubility, Water", "setting": "[3]", "value": "<LOD"}]}
{"smiles": "C=CC(=O)N1CCC(Oc2cc3c(Nc4ccc(Cl)c(Cl)c4F)ncnc3cc2OC)CC1", "note": "[Example 6, 1-(4-(4-(3,4-dichloro-2-fluorophenylamino)-7-methoxyquinazolin-6-yloxy)piperidin-1-yl)prop-2-en-1-one]", "values": [{"measurement": "Hygroscopic degree (DVS), in words", "setting": "[2]; relative humidity range of 10-90%", "value": "very high hygroscopic degree"}, {"measurement": "Purity (HPLC, %) 3 days", "setting": "[4]; 25 ± 2° C., 60 ± 5% RH", "value": 98.0, "unit": "%"}, {"measurement": "Purity (HPLC, %) Start", "setting": "[4]; 25 ± 2° C., 60 ± 5% RH", "value": 98.0, "unit": "%"}, {"measurement": "Purity (HPLC, %) Week 1", "setting": "[4]; 25 ± 2° C., 60 ± 5% RH", "value": 98.0, "unit": "%"}, {"measurement": "Purity (HPLC, %) Week 2", "setting": "[4]; 25 ± 2° C., 60 ± 5% RH", "value": 97.9, "unit": "%"}, {"measurement": "Purity (HPLC, %) Week 4", "setting": "[4]; 25 ± 2° C., 60 ± 5% RH", "value": 97.9, "unit": "%"}, {"measurement": "Purity (HPLC, %) 3 days", "setting": "[4]; 40 ± 2° C., 75 ± 5% RH", "value": 97.9, "unit": "%"}, {"measurement": "Purity (HPLC, %) Start", "setting": "[4]; 40 ± 2° C., 75 ± 5% RH", "value": 98.0, "unit": "%"}, {"measurement": "Purity (HPLC, %) Week 1", "setting": "[4]; 40 ± 2° C., 75 ± 5% RH", "value": 97.9, "unit": "%"}, {"measurement": "Purity (HPLC, %) Week 2", "setting": "[4]; 40 ± 2° C., 75 ± 5% RH", "value": 97.8, "unit": "%"}, {"measurement": "Purity (HPLC, %) Week 4", "setting": "[4]; 40 ± 2° C., 75 ± 5% RH", "value": 97.6, "unit": "%"}, {"measurement": "Moisture absorption on storage", "setting": "[1]; 25° C., 60% relative humidity and 40° C., 75% relative humidity", "value": "7-9%"}]}
{"smiles": "C=CC(=O)N1CCC(Oc2cc3c(Nc4ccc(Cl)c(Cl)c4F)ncnc3cc2OC)CC1", "note": "[Example 3, 1-(4-(4-(3,4-dichloro-2-fluorophenylamino)-7-methoxyquinazolin-6-yloxy)piperidin-1-yl)prop-2-en-1-one]", "values": [{"measurement": "Stability under storage conditions (in words)", "setting": "[1]; long-term (25° C., 60% RH), accelerated (40° C., 75% RH) and harsh (60° C.) conditions", "value": "sufficiently stable"}]}
